{
  "source": "patent US20190177430A1",
  "about": "“Methods of Treating Cancers With Chemotherapy With Reduced Toxicity” (The Wistar Institute of Anatomy and Biology, priority 2016, published 2019)",
  "origin": "cited, not measured here",
  "settings": "dosages of 250 mg/m^2",
  "data": [
    {"smiles": "COc1cccc2c1C(=O)c1c(O)c3c(c(O)c1C2=O)C[C@@](O)(C(=O)CO)C[C@@H]3O[C@H]1C[C@H](N)[C@H](O)[C@H](C)O1", "note": "[Doxorubicin, (7S,9S)-7-[(2R,4S,5S,6S)-4-amino-5-hydroxy-6-methyloxan-2-yl]oxy-6,9,11-trihydroxy-9-(2-hydroxyacetyl)-4-methoxy-8,10-dihydro-7H-tetracene-5,12-dione]", "values": [
      {"measurement": "Doxorubicin-induced cardiac dysfunction, share of treated patients", "value": 9, "unit": "%"}
    ]}
  ]
}
